The text below walks through data of patent US20110092465A1, “MONOMERIC PYROPHOSPHATE COMPLEXES AND METHODS OF TREATMENT USING THE COMPLEXES” (SYRACUSE UNIVERSITY, priority 2009, published 2011).

Read-outs that look alike come from different tables or passages of the source.

For series [1], the system named is A2780/AD cell line. Format: cell-based, human. On the procedure:
Cisplatin was used as a control and for comparative purposes. The IC50 values (μM) are for compounds 1-4 in A2780/AD cell line. Cisplatin controls and dimeric complexes previously reported are also shown for comparison:
Experimental details for the in-vitro cell testing of compounds [Co(phen)2(H2P2O7)].4H2O (1.4H2O), [Ni(phen)2(H2P2O7)].8H2O (2.8H2O) and [Cu(phen)(H2O)(H2P2O7)]. For in vitro cell studies, all experiments were performed in a Labconco Purifier I laminar flow hood that had been disinfected with 70% ethanol and irradiated with UV light. The A2780/AD cell line that was used for testing was provided by the Fox Chase Cancer Center, Philadelphia (USA). Fetal bovine serum (FBS) was purchased from Hyclone. Penicillin-streptomycin solution with 10,000 units penicillin and 10 mg/mL streptomycin in 0.9% NaCl was obtained from Sigma. Gibco RPMI 1640 growth media that contained L-glutamine and phenol red was supplied by Invitrogen. Cellgro Cellstripper, a non-enzymatic cell dissociation solution, was obtained from Mediatech. Growth media were filtered with 0.22 μm filter (VWR). Cell Counting Kit 8 (CCK8) was purchased from Dojindo. Cells were incubated and grown in an incubator that was purchased from VWR. Optical densities of the cell cultures were measured at 450 nm with Thermo Multiskan EX that was equipped with Ascent software version 2.6.
Cell lines and culture conditions. The A2780/AD cell line was cultured in BD Falcon 25 cm^2 surface area, canted neck flaks with vented cap (VWR) containing RPMI media supplemented with 10% FBS and 10% Penicillin-Streptomycin solution by volume. Subcultures were generated by incubating the cells with Cellstripper, and passing cells at a 1:10 culture ratio.
Drug cytotoxicity. Cells used for studies were diluted to make either a solution of 50,000 cells/mL, used for the 72 h studies, or 80,000 cells/mL, used for the 6 and 24 h studies. 100 μL of the cell solution was added to the wells of a 96 well plate, and the cells were allowed to adhere overnight. The media was then removed from the 96 well plates and replaced with either 100 μL (for 6 h studies) or 200 μL (for 24 and 72 h studies) of media containing drug. Drug solutions were prepared by dissolving the drug in media (compounds 2, 4) or in a 25% methanol solution (compounds 1, 3). The solutions were filter sterilized and serially diluted 1:10. The concentration of methanol was kept below 5% for all concentrations studied. Cisplatin was prepared by dissolving in PBS and sonicating for 1 h to create a final concentration of 0.5 mg/mL (1.66 mM). Each drug was tested over 9 concentrations in triplicate with each point in done in triplicate. After the incubation period, the drug containing media was removed and replaced with 100 μL of media containing 10% CCK-8 solution by volume. The plates were incubated until the control reached 0.8-1.2 absorbance at 450 nm (2, 1.5 and 0.5 h for the 6, 24, 72 h runs respectively). The absorbance was measured at 450 nm via a plate reader. A blank was subtracted from all wells, and the results were plotted as a percentage compared to the control vs. concentration of drug. IC50 values were calculated by fitting the data using Prism Graphpad 5 using a nonlinear, dose response curve with a 4 variable fit. The reported ICso values are an average of at least 3 runs reported with standard deviation.

Series [2] has as its system adriamycin-resistant human ovarian cancer cell line (A2780/AD). Put plainly: Proliferation colorimetric assay (WSK-8) of compounds 11-13 in A2780/AD. It is filed as cell-based. To be noted: for toxicity in words: 24 and 72 h. The procedure:
Compounds 11, 12, and 13 were tested against the adriamycin-resistant human ovarian cancer cell line (A2780/AD) over a time period of 24 and 72 h (Table 8 below). Cisplatin was used as an external control. Adriamycin resistant ovarian cancer cell line (A2780/AD) were cultured as adherent monolayers in RPMI 1640 (Invitrogen) growth media containing L-glutamine and folic acid supplemented with 10,000 units penicillin, 10 mg/ml streptomycin (Sigma) and 10% (v/v) fetal bovine serum (Sigma). Cells were incubated and grown in a VWR mammalian incubator at 5% CO2 and 95% humidity. All preparations for cell culture and assays were conducted in a sterile environment under a Labconco Purifier I Laminar flow hood. Cells were cultured in Millipore 250 mL culture bottles with vented lids.
The proliferation of the exponential phase cultures of A2780/AD were assessed by colorimetric assay. WSK-8 (Dojindo) was performed according to manufacturer's instruction. Adherent cell cultures were harvested by stripping of culture flask by a non-enzymatic cell stripper (Mediatech) after a 30 minute incubation period. The cells were then collected. The cell density was adjusted with the addition of RPMI 1640 media to 80,000 cells/mL for exponential growth for the period of drug exposure. To each well, aliquots of 100 μL were inoculated resulting in 8,000 cells per well. After a 24 h incubation time to facilitate adherence, the media was removed and replaced with 200 μl of fresh media containing different concentrations of compounds 11, 12, and 13. The cells were then incubated for 24 and 72 h. Optical densities were measured at 450 nm using a plate reader. The percentage of cell viability was determined relative to untreated control microcultures. The IC50 concentrations were calculated based on a sigmoidal (doseresponse) fit using OriginLabs 8 software with R^2 values ≧0.70 in all cases (average R^2 value 0.90). All experimental points were measured in triplicate and each experiment was performed at least three times on separate “batches” of synthesized compound. A2780/AD2O cells used were fewer than 12 passages for all testing.

Series [3] shares this test system. The note with it: dimeric complexes previously reported (Ref 3), cited from earlier work.
Setting [4] is: A2780/AD, 6 h exposure, read-out: IC50 6 h.
[5] abbreviates: A2780/AD, 24 h exposure, read-out: IC50 24 h.
[6] abbreviates: A2780/AD, 72 h exposure, read-out: IC50 72 h.
Setting [7] is: 24 h exposure, read-out: IC50 24 h.
The mark [8] stands for this setting: 72 h exposure, read-out: IC50 72 h.

Consider `O=P([O-])(O)OP(=O)([O-])O.[Co+2].c1cnc2c(c1)ccc1cccnc12.c1cnc2c(c1)ccc1cccnc12` [compound 1, [Co(phen)2(H2P2O7)].4H2O], for which the IC50 in series [1] is 0.03 to 0.08 µM; in series [1] (setting [4]), > 1000 µM; in series [1] (setting [5]) it was 5 µM; in series [1] (setting [6]), 0.03 ± 0.02 µM. Further, in series [1], the “cytotoxic activity in words” value is recorded as “low nanomolar range”.

For the compound `O=P([O-])(O)OP(=O)([O-])O.[Ni+2].c1cnc2c(c1)ccc1cccnc12.c1cnc2c(c1)ccc1cccnc12` [compound 2, [Ni(phen)2(H2P2O7)].8H2O], the “cytotoxic activity in words” value in series [1] is reported as “little activity”. Also, the IC50 in series [1] (setting [4]) was > 1000 µM; in series [1] (setting [5]), > 1000 µM; in series [1] (setting [6]) it was 630 ± 390 µM. Moreover, the toxicity in words result in series [2] is “low nanomolar inhibitory concentrations”.

With `O.O=P([O-])(O)OP(=O)([O-])O.[Cu+2].c1cnc2c(c1)ccc1cccnc12` [compound 3, [Cu(phen)(H2O)(H2P2O7)]], in series [1], the “cytotoxic activity in words” value is “low nanomolar range”. The IC50 in series [1] (setting [4]) was 14 ± 6 µM; in series [1] (setting [5]) it was 0.7 µM; in series [1] (setting [6]), 0.14 ± 0.05 µM; in series [2] (72 h, read-out: IC50 at 72 h), ~0.000162 µM.

As to `O.O.O.O.O.O.O.O.O.O.O.O.O.O.O.O=P([O-])([O-])OP(=O)([O-])[O-].[Cu+2].[Na+].[Na+].c1cnc2c(c1)ccc1cccnc12` [compound 4, {[Cu(phen)(H2O)(P2O7)] [Na2(H2O)8]}.6H2O], the IC50 in series [1] was 0.03 to 0.08 µM; in series [1] (setting [4]), 15 ± 6 µM; in series [1] (setting [5]) it was 0.6 ± 0.6 µM; in series [1] (setting [6]), 0.08 ± 0.03 µM. For the same compound, the “cytotoxic activity in words” value in series [1] is on record as “low nanomolar range”.

Regarding `O=P([O-])([O-])OP(=O)([O-])[O-].[Ni+2].[Ni+2].c1cnc2c(c1)ccc1cccnc12.c1cnc2c(c1)ccc1cccnc12.c1cnc2c(c1)ccc1cccnc12.c1cnc2c(c1)ccc1cccnc12` [compound 11, {[Ni(phen)2]2(μ-P2O7)}.27H2O], the toxicity in words entry in series [2] is recorded as “low toxicity”. The IC50 in series [2] (setting [7]) is 589 ± 31.6 µM; in series [2] (setting [8]), 304 ± 40.9 µM; in series [3] (24 h, read-out: IC50 24 h) it was 590 µM; in series [3] (72 h, read-out: IC50 72 h), 304 µM.

For `O.O.O.O.O.O.O.O.O.O.O=P([O-])([O-])OP(=O)([O-])[O-].[Cu+2].[Cu+2].c1cnc2c(c1)ccc1cccnc12.c1cnc2c(c1)ccc1cccnc12` [compound 12, {[Cu(phen)(H2O)]2(μ-P2O7)}.8H2O], in series [2], the toxicity in words entry is recorded as “significant toxicity”. The IC50 was 0.64 ± 0.12 µM in series [2] (setting [7]); 0.6 µM in series [3] (24 h, read-out: IC50 24 h); 0.0018 µM in series [3] (72 h, read-out: IC50 72 h).

As to `O=P([O-])([O-])OP(=O)([O-])[O-].[Co+2].[Co+2].c1cnc2c(c1)ccc1cccnc12.c1cnc2c(c1)ccc1cccnc12.c1cnc2c(c1)ccc1cccnc12.c1cnc2c(c1)ccc1cccnc12` [compound 13, {[Co(phen)2]2(μ-25 P2O7)}.6MeOH], the toxicity in words entry in series [2] is “significant toxicity”. The IC50 in series [2] (setting [7]) is 2.01 ± 0.86 µM; in series [2] (72 h, read-out: IC50 at 72 h) it was 0.00016 µM; in series [3] (24 h, read-out: IC50 24 h), 2 µM; in series [3] (72 h, read-out: IC50 72 h), 0.00017 µM.

For the compound “cis-[Pt(NH3)2Cl2] [Cisplatin, reference compound]”, the IC50 in series [1] (setting [4]) is > 160 µM; in series [1] (setting [5]), 200 ± 16 µM; in series [1] (setting [6]), 13 ± 5 µM; in series [2] (setting [7]) it was 84 ± 10.3 µM; in series [2] (setting [8]) it was 11 ± 1.5 µM.
